Reference: the supplement of paper PMC3974653
Counter-ions that a name gives are not always drawn.

Tested on: MTT (mouse pheochromocytoma)
Experiment: IC50 of cell viability (ATP content)
Details: (24 or 48 h)
Summary of the method: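 Each well of a white 1536-well plate received 5 µl of MTT mouse pheochromocytoma cells at 200,000 cells/ml in DMEM containing 5% FBS and 1% horse serum. After overnight culture at 37°C, 5% CO2, cells were exposed for 24 or 48 hrs to 23 nl of library compound in DMSO, pinned at 8 final concentrations from 0.5 nM to 46 µM. CellTiter-Glo luminescence was read after 15 minutes, and IC50 was obtained from a four-parameter logistic fit of signals normalised to positive-control and DMSO wells.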

SMILES	IC50 of cell viability [µM]
CN(C1CCCCC1)C(=O)CCCOC2=CC\3=C(NC(=O)\C=C3)C=C2 [Cilostamide]	> 46
O=C(/C=C/c1cccc(F)c1)NC1CC1 [Cinflumide]	> 46
OC/C=C/c1ccccc1 [Cinnamyl alcohol]	> 46
C(=C/c1ccccc1)/CN1CCN(C(c2ccccc2)c2ccccc2)CC1 [Cinnarizine]	> 46
OC(=O)\C1=C\N(C2CC2)C3=CC(=C(F)C=C3C1=O)N4CCNCC4 [Ciprofloxacin hydrochloride]	> 46
COc1cc(N)c(Cl)cc1C(=O)N[C@@H]1CCN(CCCOc2ccc(F)cc2)C[C@H]1OC [Cisapride]	> 46
O=C(O)CC(O)(CC(=O)O)C(=O)O [Citric acid]	> 46
COc1cc(N)c(Cl)cc1C(=O)NC1CCN(Cc2ccccc2)CC1 [Clebopride maleate]	> 46
C[N@@+]12CCC(CC1)[C@@H](C2)OC(=O)C(O)(C3=CC=CC=C3)C4=CC=CC=C4 [Clidinium bromide]	> 46
CCC[C@@H]1CC(C(=O)NC(C2O[C@H](SC)C(OP(=O)(O)O)[C@H](O)[C@H]2O)[C@H](C)Cl)N(C)C1 (some centres not stated) [Clindamycin 2-phosphate]	> 46
CCC[C@H]1C[C@H](C(=O)N[C@@H]([C@@H]2O[C@@H](SC)[C@@H](O)[C@@H](O)[C@H]2O)[C@H](C)Cl)N(C)C1 [Clindamycin hydrochloride]	> 46
CCCCCCCCCCCCCCCC(=O)O[C@@H]1[C@@H](O)[C@@H](O)C(C(NC(=O)[C@H]2C[C@@H](CCC)CN2C)C(C)Cl)O[C@@H]1SC (some centres not stated) [Clindamycin palmitate]	> 46
C[C@@H]1C[C@@H]2[C@H]3C[C@@H](F)\C4=C\C(=O)\C=C/[C@]4(C)[C@@]3(Cl)[C@@H](O)C[C@@]2(C)[C@@H]1C(=O)COC(=O)C(C)(C)C [Clocortolone pivalate]	> 46
O=P([O-])(O)C(Cl)(Cl)P(=O)([O-])O.[Na+].[Na+] [Clodronic acid]	> 46
N[S+](=O)([O-])c1ccc(Cl)c([S+](N)(=O)[O-])c1 [Clofenamide]	> 46
O=C(CCl)c1ccc(Oc2ccc(C(=O)CCl)cc2)cc1 [Clofenoxyde]	> 46
CCOC(=O)NC(C)(C)Cc1ccc(Cl)cc1 [Cloforex]	> 46
COc1ccc2c(C(=O)c3ccc(Cl)cc3)c(C)n(CC(=O)O)c2c1 [Clometacine]	> 46
C[C@@H]1CCC[C@H](C)N1NC(=O)c1ccc(Cl)c([S+](N)(=O)[O-])c1 [Clopamide]	> 46
Clc1ccc([C@@H](OCCN2CCCCC2)c2ccccc2)cc1 [Cloperastine hydrochloride]	> 46
C#CCN(C)CCCOc1ccc(Cl)cc1Cl.Cl [Clorgyline hydrochloride]	> 46
Oc1ccc(Cl)cc1Cc1ccccc1 [Clorophene]	> 46
Nc1cc(C(Cl)=C(Cl)Cl)c([S+](N)(=O)[O-])cc1[S+](N)(=O)[O-] [Clorsulon]	> 46
C[C@]12CCC3C(CCC4=C(Cl)C(=O)CC[C@@]43C)C1CCC2O (some centres not stated) [Clostebol]	> 46

Other lines, results leading:

IC50 of cell viability [µM]	SMILES
> 46	COCCOC(=O)C1=C(C)NC(C)=C(C(=O)OC/C=C/c2ccccc2)C1c1cccc([N+](=O)[O-])c1 (configuration not stated) [Cilnidipine]
> 46	CCN1\N=C(\C(O)=O)C(=O)C2=C1C=C3OCOC3=C2 [Cinoxacin]
> 46	CC(C)(Oc1ccc(C2CC2(Cl)Cl)cc1)C(=O)O (configuration not stated) [Ciprofibrate]
> 46	CN1C(=O)CN2CCc3ccccc3C2c2cc(Cl)ccc21 (configuration not stated) [Clazolam]
> 46	CN1CCC[C@@H]1CCO[C@](C)(c1ccccc1)c1ccc(Cl)cc1 [Clemastine fumarate]
> 46	Clc1ccc(Cn2c(CN3CCCC3)nc3ccccc32)cc1 [Clemizole hydrochloride]
> 46	CC(C)(C)C(=O)C(Oc1ccc(Cl)cc1)n1ccnc1 (configuration not stated) [Climbazole]
> 46	CC(C)/N=c1\cc2n(-c3ccc(Cl)cc3)c3ccccc3nc-2cc1Nc1ccc(Cl)cc1 [Clofazimine]
> 46	CCOC(=O)C(C)(C)Oc1ccc(Cl)cc1 [Clofibrate]
> 46	CC(C)(Oc1ccc(Cl)cc1)C(=O)O [Clofibric_acid]
> 46	O=C(Nc1ccc(Cl)cc1)Nc1ccc(Cl)c(C(F)(F)F)c1 [Cloflucarban]
> 46	Cc1cc(CC(=O)O)c(C)n1-c1ccc(Cl)cc1 [Clopirac]
> 46	O=C1c2ccccc2C(=O)C1c1ccc(Cl)cc1 [Clorindione]
